Experimental data reported in paper PMC6858440, “Computational redesign of the Escherichia coli ribose-binding protein ligand binding pocket for 1,3-cyclohexanediol and cyclohexanol” (Scientific Reports, 2019).
pKd: −log10 of the molar value.

Target: RbsB ribose-binding protein (Escherichia coli, UniProt P02925)
Experiment: ITC with purified protein; also ~[…] °C Tm shift with […] ribose

Chain of RbsB ribose-binding protein (P02925 26-296): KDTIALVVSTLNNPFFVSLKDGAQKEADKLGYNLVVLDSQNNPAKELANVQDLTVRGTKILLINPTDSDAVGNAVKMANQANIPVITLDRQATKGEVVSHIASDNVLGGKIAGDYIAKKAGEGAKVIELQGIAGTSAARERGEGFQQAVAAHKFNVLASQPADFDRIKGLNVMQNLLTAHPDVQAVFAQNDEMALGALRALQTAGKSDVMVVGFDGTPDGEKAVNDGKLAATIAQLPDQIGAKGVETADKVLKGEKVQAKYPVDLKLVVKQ

O=C[C@H](O)[C@H](O)[C@H](O)CO [ribose]
pKd: 6.28
